Where two headings read alike, the source gives them in different places.
How the values were obtained:
MBP [1] = target: T1, MBP (Escherichia coli, UniProt P0AEX9)
Method: TMB (3,3′,5,5′ tetramethylbenzidine) is a chromogen that yields a blue color when oxidized with hydrogen peroxide (catalyzed by HRP) with major absorbances at 370 nm and 652 nm. Adding sulfuric or phosphoric acid to stop the reaction changes the product to yellow that absorbs at 450 nm and provides greater sensitivity than the blue product.
For any test samples outside of such a range, dilution with a buffered solution is carried out.

Maltose binding protein = Maltose binding protein (Escherichia coli, UniProt P0AEX9); settings: cited from earlier work
MBP [2] = target: T1, MBP; assay: inhibition of amylose-MBP binding by maltose (ELISA); parameters: 6xHis (C); made in house; host or cells: E. coli BL-21 (DE3); species or system E. coli

amylose
Absorbance at 450 nm (MBP [1]; Na2CO3 buffer pH 8.3, listed as level 0.0001 (unit not given)): 0.215
Absorbance at 450 nm (MBP [1]; Na2CO3 buffer pH 8.3, listed as level 0.0002 (unit not given)): 0.181
Absorbance at 450 nm (MBP [1]; Na2CO3 buffer pH 8.3, listed as level 0.0005 (unit not given)): 0.233
Absorbance at 450 nm (MBP [1]; Na2CO3 buffer pH 8.3, listed as level 0.001 (unit not given)): 0.216
Absorbance at 450 nm (MBP [1]; Na2CO3 buffer pH 8.3, listed as level 0.01 (unit not given)): 0.440
Absorbance at 450 nm (MBP [1]; Na2CO3 buffer pH 8.3, listed as level 0.1 (unit not given)): 0.870
Absorbance at 450 nm (MBP [1]; Na2CO3 buffer pH 8.3, listed as level 1 (unit not given)): 0.748
Absorbance at 450 nm (MBP [1]; Na2CO3 buffer pH 8.9, listed as level 0.0001 (unit not given)): 0.215
Absorbance at 450 nm (MBP [1]; Na2CO3 buffer pH 8.9, listed as level 0.0002 (unit not given)): 0.170
Absorbance at 450 nm (MBP [1]; Na2CO3 buffer pH 8.9, listed as level 0.0005 (unit not given)): 0.175
Absorbance at 450 nm (MBP [1]; Na2CO3 buffer pH 8.9, listed as level 0.001 (unit not given)): 0.248
Absorbance at 450 nm (MBP [1]; Na2CO3 buffer pH 8.9, listed as level 0.01 (unit not given)): 0.502
Absorbance at 450 nm (MBP [1]; Na2CO3 buffer pH 8.9, listed as level 0.1 (unit not given)): 0.847
Absorbance at 450 nm (MBP [1]; Na2CO3 buffer pH 8.9, listed as level 1 (unit not given)): 0.787
Absorbance at 450 nm (MBP [1]; Na2CO3 buffer pH 9.3, listed as level 0.0001 (unit not given)): 0.196
Absorbance at 450 nm (MBP [1]; Na2CO3 buffer pH 9.3, listed as level 0.0002 (unit not given)): 0.169
Absorbance at 450 nm (MBP [1]; Na2CO3 buffer pH 9.3, listed as level 0.0005 (unit not given)): 0.152
Absorbance at 450 nm (MBP [1]; Na2CO3 buffer pH 9.3, listed as level 0.001 (unit not given)): 0.179
Absorbance at 450 nm (MBP [1]; Na2CO3 buffer pH 9.3, listed as level 0.01 (unit not given)): 0.438
Absorbance at 450 nm (MBP [1]; Na2CO3 buffer pH 9.3, listed as level 0.1 (unit not given)): 0.828
Absorbance at 450 nm (MBP [1]; Na2CO3 buffer pH 9.3, listed as level 1 (unit not given)): 0.788
Absorbance at 450 nm (MBP [1]; Na2CO3 buffer pH 9.9, listed as level 0.0001 (unit not given)): 0.235
Absorbance at 450 nm (MBP [1]; Na2CO3 buffer pH 9.9, listed as level 0.0002 (unit not given)): 0.182
Absorbance at 450 nm (MBP [1]; Na2CO3 buffer pH 9.9, listed as level 0.0005 (unit not given)): 0.192
Absorbance at 450 nm (MBP [1]; Na2CO3 buffer pH 9.9, listed as level 0.001 (unit not given)): 0.241
Absorbance at 450 nm (MBP [1]; Na2CO3 buffer pH 9.9, listed as level 0.01 (unit not given)): 0.452
Absorbance at 450 nm (MBP [1]; Na2CO3 buffer pH 9.9, listed as level 0.1 (unit not given)): 0.849
Absorbance at 450 nm (MBP [1]; Na2CO3 buffer pH 9.9, listed as level 1 (unit not given)): 0.868
Absorbance at 450 nm (MBP [1]; Na2CO3 buffer pH 10, listed as level 0.0001 (unit not given)): 0.237
Absorbance at 450 nm (MBP [1]; Na2CO3 buffer pH 10, listed as level 0.0002 (unit not given)): 0.224
Absorbance at 450 nm (MBP [1]; Na2CO3 buffer pH 10, listed as level 0.0005 (unit not given)): 0.183
Absorbance at 450 nm (MBP [1]; Na2CO3 buffer pH 10, listed as level 0.001 (unit not given)): 0.160
Absorbance at 450 nm (MBP [1]; Na2CO3 buffer pH 10, listed as level 0.01 (unit not given)): 0.432
Absorbance at 450 nm (MBP [1]; Na2CO3 buffer pH 10, listed as level 0.1 (unit not given)): 0.793
Absorbance at 450 nm (MBP [1]; Na2CO3 buffer pH 10, listed as level 1 (unit not given)): 0.918
Absorbance at 450 nm (MBP [1]; Na2CO3 buffer pH 11, listed as level 0.0001 (unit not given)): 0.185
Absorbance at 450 nm (MBP [1]; Na2CO3 buffer pH 11, listed as level 0.0002 (unit not given)): 0.183
Absorbance at 450 nm (MBP [1]; Na2CO3 buffer pH 11, listed as level 0.0005 (unit not given)): 0.215
Absorbance at 450 nm (MBP [1]; Na2CO3 buffer pH 11, listed as level 0.001 (unit not given)): 0.193
Absorbance at 450 nm (MBP [1]; Na2CO3 buffer pH 11, listed as level 0.01 (unit not given)): 0.512
Absorbance at 450 nm (MBP [1]; Na2CO3 buffer pH 11, listed as level 0.1 (unit not given)): 0.845
Absorbance at 450 nm (MBP [1]; Na2CO3 buffer pH 11, listed as level 1 (unit not given)): 0.908
Absorbance at 450 nm (MBP [1]; NaHCO3 buffer pH 5.7, listed as level 0.0001 (unit not given)): 0.297
Absorbance at 450 nm (MBP [1]; NaHCO3 buffer pH 5.7, listed as level 0.0002 (unit not given)): 0.264
Absorbance at 450 nm (MBP [1]; NaHCO3 buffer pH 5.7, listed as level 0.0005 (unit not given)): 0.314
Absorbance at 450 nm (MBP [1]; NaHCO3 buffer pH 5.7, listed as level 0.001 (unit not given)): 0.238
Absorbance at 450 nm (MBP [1]; NaHCO3 buffer pH 5.7, listed as level 0.01 (unit not given)): 0.465
Absorbance at 450 nm (MBP [1]; NaHCO3 buffer pH 5.7, listed as level 0.1 (unit not given)): 0.861
Absorbance at 450 nm (MBP [1]; NaHCO3 buffer pH 5.7, listed as level 1 (unit not given)): 0.815
Absorbance at 450 nm (MBP [1]; NaHCO3 buffer pH 6.3, listed as level 0.0001 (unit not given)): 0.243
Absorbance at 450 nm (MBP [1]; NaHCO3 buffer pH 6.3, listed as level 0.0002 (unit not given)): 0.192
Absorbance at 450 nm (MBP [1]; NaHCO3 buffer pH 6.3, listed as level 0.0005 (unit not given)): 0.271
Absorbance at 450 nm (MBP [1]; NaHCO3 buffer pH 6.3, listed as level 0.001 (unit not given)): 0.219
Absorbance at 450 nm (MBP [1]; NaHCO3 buffer pH 6.3, listed as level 0.01 (unit not given)): 0.392
Absorbance at 450 nm (MBP [1]; NaHCO3 buffer pH 6.3, listed as level 0.1 (unit not given)): 0.879
Absorbance at 450 nm (MBP [1]; NaHCO3 buffer pH 6.3, listed as level 1 (unit not given)): 0.826
Absorbance at 450 nm (MBP [1]; NaHCO3 buffer pH 6.9, listed as level 0.0001 (unit not given)): 0.199
Absorbance at 450 nm (MBP [1]; NaHCO3 buffer pH 6.9, listed as level 0.0002 (unit not given)): 0.154
Absorbance at 450 nm (MBP [1]; NaHCO3 buffer pH 6.9, listed as level 0.0005 (unit not given)): 0.234
Absorbance at 450 nm (MBP [1]; NaHCO3 buffer pH 6.9, listed as level 0.001 (unit not given)): 0.140
Absorbance at 450 nm (MBP [1]; NaHCO3 buffer pH 6.9, listed as level 0.01 (unit not given)): 0.397
Absorbance at 450 nm (MBP [1]; NaHCO3 buffer pH 6.9, listed as level 0.1 (unit not given)): 0.896
Absorbance at 450 nm (MBP [1]; NaHCO3 buffer pH 6.9, listed as level 1 (unit not given)): 0.853
Absorbance at 450 nm (MBP [1]; NaHCO3 buffer pH 7.1, listed as level 0.0001 (unit not given)): 0.217
Absorbance at 450 nm (MBP [1]; NaHCO3 buffer pH 7.1, listed as level 0.0002 (unit not given)): 0.195
Absorbance at 450 nm (MBP [1]; NaHCO3 buffer pH 7.1, listed as level 0.0005 (unit not given)): 0.200
Absorbance at 450 nm (MBP [1]; NaHCO3 buffer pH 7.1, listed as level 0.001 (unit not given)): 0.159
Absorbance at 450 nm (MBP [1]; NaHCO3 buffer pH 7.1, listed as level 0.01 (unit not given)): 0.366
Absorbance at 450 nm (MBP [1]; NaHCO3 buffer pH 7.1, listed as level 0.1 (unit not given)): 0.855
Absorbance at 450 nm (MBP [1]; NaHCO3 buffer pH 7.1, listed as level 1 (unit not given)): 0.849
Absorbance at 450 nm (MBP [1]; NaHCO3 buffer pH 7.7, listed as level 0.0001 (unit not given)): 0.242
Absorbance at 450 nm (MBP [1]; NaHCO3 buffer pH 7.7, listed as level 0.0002 (unit not given)): 0.208
Absorbance at 450 nm (MBP [1]; NaHCO3 buffer pH 7.7, listed as level 0.0005 (unit not given)): 0.187
Absorbance at 450 nm (MBP [1]; NaHCO3 buffer pH 7.7, listed as level 0.001 (unit not given)): 0.254
Absorbance at 450 nm (MBP [1]; NaHCO3 buffer pH 7.7, listed as level 0.01 (unit not given)): 0.387
Absorbance at 450 nm (MBP [1]; NaHCO3 buffer pH 7.7, listed as level 0.1 (unit not given)): 0.817
Absorbance at 450 nm (MBP [1]; NaHCO3 buffer pH 7.7, listed as level 1 (unit not given)): 0.809

maltotriose
Kd (Maltose binding protein; Kd expressed as ppb): about 120 ppb

OC[C@H]1O[C@H](O[C@H]2[C@H](O)[C@@H](O)[C@H](O)O[C@@H]2CO)[C@H](O)[C@@H](O)[C@@H]1O [maltose]
saturated at (level) (Maltose binding protein; saturation of maltose binding protein, as ppb): about 400 ppb
saturated at (concentration) (Maltose binding protein; saturation of maltose binding protein): about 10 μM
interference with binding of MBP with amylose (MBP [2]; 50 μM maltose): 90%
inhibition at 5000 µM (MBP [2]; read-out: inhibition of binding of MBP to amylose): 95%
